# Where a SMILES comes first, the peptide text is derived from it.
# How the values were obtained:
# gephE [1] = biological target: T1, gephE (Rattus norvegicus, UniProt Q03555); experiment: TRIC displacement 12-point dose response against gephE-NN1D-Alexa647 complex; assay type: binding
# T1 construct: gephE (residues 318-736) was generated; made in house
# T1 sequence (Q03555 350-768): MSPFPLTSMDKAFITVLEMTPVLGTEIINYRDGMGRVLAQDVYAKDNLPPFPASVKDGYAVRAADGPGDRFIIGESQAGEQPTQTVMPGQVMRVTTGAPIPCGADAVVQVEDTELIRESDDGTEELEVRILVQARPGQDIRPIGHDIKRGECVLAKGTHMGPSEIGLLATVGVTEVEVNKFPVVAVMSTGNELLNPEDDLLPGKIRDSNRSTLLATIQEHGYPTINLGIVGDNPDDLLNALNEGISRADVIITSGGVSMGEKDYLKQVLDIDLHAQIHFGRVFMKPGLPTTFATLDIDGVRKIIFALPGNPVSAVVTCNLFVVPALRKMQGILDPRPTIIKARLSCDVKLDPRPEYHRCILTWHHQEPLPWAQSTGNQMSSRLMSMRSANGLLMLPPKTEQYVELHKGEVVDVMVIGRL
# native geph = experiment: µSPOT peptide microarray binding assay with native geph from mouse brain lysate
# FL-geph = experiment: µSPOT peptide microarray binding assay with full-length geph
# gephE [2] = experiment: µSPOT peptide microarray binding assay with recombinant gephE
# [3] = µSPOT peptide microarray, GlyRβ full positional scan, native geph from mouse brain lysate, intensity normalised to wild-type sequence DLRSNDFSIVGSLPR (=1)
# [4] = µSPOT peptide microarray, GlyRβ full positional scan, intensity normalised to wild-type sequence DLRSNDFSIVGSLPR (=1)
# [5] = µSPOT peptide microarray, GlyRβ full positional scan, recombinant gephE, intensity normalised to wild-type sequence DLRSNDFSIVGSLPR (=1)
# [6] = µSPOT full positional scan of GlyRβ 15-mer DLRSNDFSIVGSLPR, native geph, intensity normalised to wild-type sequence (= 1)
# [7] = µSPOT full positional scan of GlyRβ 15-mer DLRSNDFSIVGSLPR, intensity normalised to wild-type sequence (= 1)
Compound,Ki (gephE [1]),Native geph Binding Intensity [norm.] (native geph; [3]),Fl-geph Binding Intensity [norm.] (FL-geph; [4]),gephE Binding Intensity [norm.] (gephE [2]; [5]),Native geph Binding Intensity [norm.] (native geph; [6]),Fl-geph Binding Intensity [norm.] (FL-geph; [7]),gephE Binding Intensity [norm.] (gephE [2]; [7])
CC(C)C[C@H](NC(=O)[C@@H](N)CC(=O)O)C(=O)N[C@@H](CCCNC(=N)N)C(=O)N[C@@H](CO)C(=O)N[C@@H](CC(N)=O)C(=O)N[C@@H](CC(=O)O)C(=O)N[C@@H](Cc1ccccc1)C(=O)N[C@@H](CO)C(=O)N[C@H](C(=O)N[C@H](C(=O)NCC(=O)N[C@@H](CO)C(=O)N[C@@H](CC(C)C)C(=O)N1CCC[C@H]1C(=O)N[C@@H](CCCNC(=N)N)C(N)=O)C(C)C)C(C)C [GlyRβ_Full_Positional_Scan_166] (H-DLRSNDFSVVGSLPR-NH2),21.4 µM,,,,,,
CC[C@H](C)[C@H](NC(=O)[C@H](CO)NC(=O)[C@H](Cc1ccc(O)cc1)NC(=O)[C@H](CC(=O)O)NC(=O)[C@H](CC(N)=O)NC(=O)[C@H](CO)NC(=O)[C@H](CCCNC(=N)N)NC(=O)[C@H](CC(C)C)NC(=O)[C@@H](N)CC(=O)O)C(=O)N[C@H](C(=O)NCC(=O)N[C@@H](CO)C(=O)N[C@@H](CC(C)C)C(=O)N1CCC[C@H]1C(=O)N[C@@H](CCCNC(=N)N)C(N)=O)C(C)C [GlyRβ_Full_Positional_Scan_129] (H-DLRSNDYSIVGSLPR-NH2),185 µM,,,,,,
CC[C@H](C)[C@H](NC(=O)CNC(=O)[C@H](Cc1ccccc1)NC(=O)[C@H](CC(=O)O)NC(=O)[C@H](CC(N)=O)NC(=O)[C@H](CO)NC(=O)[C@H](CCCNC(=N)N)NC(=O)[C@H](CC(C)C)NC(=O)[C@@H](N)CC(=O)O)C(=O)N[C@H](C(=O)NCC(=O)N[C@@H](CO)C(=O)N[C@@H](CC(C)C)C(=O)N1CCC[C@H]1C(=O)N[C@@H](CCCNC(=N)N)C(N)=O)C(C)C [GlyRβ_Full_Positional_Scan_142] (H-DLRSNDFGIVGSLPR-NH2),42.4 µM,,,,,,
CC[C@H](C)[C@H](NC(=O)[C@H](CO)NC(=O)[C@H](Cc1ccccc1)NC(=O)[C@H](CC(=O)O)NC(=O)[C@H](CC(N)=O)NC(=O)[C@H](CO)NC(=O)[C@H](CCCNC(=N)N)NC(=O)[C@H](CC(C)C)NC(=O)[C@@H](N)CC(=O)O)C(=O)N[C@H](C(=O)NCC(=O)N[C@@H](CO)C(=O)N[C@@H](CC(C)C)C(=O)N1CCC[C@H]1C(=O)N[C@@H](CCCNC(=N)N)C(N)=O)[C@@H](C)CC [GlyRβ_Full_Positional_Scan_183] (H-DLRSNDFSIIGSLPR-NH2),9.01 µM,,,,,,
CC[C@H](C)[C@H](NC(=O)[C@@H](NC(=O)[C@H](Cc1ccccc1)NC(=O)[C@H](CC(=O)O)NC(=O)[C@H](CC(N)=O)NC(=O)[C@H](CO)NC(=O)[C@H](CCCNC(=N)N)NC(=O)[C@H](CC(C)C)NC(=O)[C@@H](N)CC(=O)O)[C@@H](C)O)C(=O)N[C@H](C(=O)NCC(=O)N[C@@H](CO)C(=O)N[C@@H](CC(C)C)C(=O)N1CCC[C@H]1C(=O)N[C@@H](CCCNC(=N)N)C(N)=O)C(C)C [GlyRβ_Full_Positional_Scan_156] (H-DLRSNDFTIVGSLPR-NH2),16.6 µM,,,,,,
CC[C@H](C)[C@H](NC(=O)[C@H](CO)NC(=O)[C@H](Cc1c[nH]c2ccccc12)NC(=O)[C@H](CC(=O)O)NC(=O)[C@H](CC(N)=O)NC(=O)[C@H](CO)NC(=O)[C@H](CCCNC(=N)N)NC(=O)[C@H](CC(C)C)NC(=O)[C@@H](N)CC(=O)O)C(=O)N[C@H](C(=O)NCC(=O)N[C@@H](CO)C(=O)N[C@@H](CC(C)C)C(=O)N1CCC[C@H]1C(=O)N[C@@H](CCCNC(=N)N)C(N)=O)C(C)C [GlyRβ_Full_Positional_Scan_128] (H-DLRSNDWSIVGSLPR-NH2),31.9 µM,,,,,,
KLRSNDFSIVGSLPR [GlyRβ_Full_Positional_Scan_014],,0.32 norm.,0.94 norm.,1.03 norm.,,,
"DLRSNDFSIDGSLPR [GlyRβ_Full_Positional_Scan_190, GlyR β 414-428 variant V423D]",,0.28 norm.,0.35 norm.,0.46 norm.,,,
"DLRSNDDSIVGSLPR [GlyRβ_Full_Positional_Scan_130, GlyR β 414-428 variant F420D]",,0.26 norm.,0.38 norm.,0.45 norm.,,,
"DLRSNDSSIVGSLPR [GlyRβ_Full_Positional_Scan_135, GlyR β 414-428 variant F420S]",,0.35 norm.,0.46 norm.,0.51 norm.,,,
DLKSNDFSIVGSLPR [GlyRβ_Full_Positional_Scan_054],,1.21 norm.,1.24 norm.,1.01 norm.,,,
"DLRSNDFSAVGSLPR [GlyRβ_Full_Positional_Scan_161, GlyR β 414-428 variant I422A]",,0.52 norm.,0.81 norm.,0.56 norm.,,,
DLRSNDFSIVGSLPY [GlyRβ_Full_Positional_Scan_289],,,,,1.09 norm.,0.74 norm.,0.87 norm.
DLRANDFSIVGSLPR [GlyRβ_Full_Positional_Scan_061],,1.12 norm.,0.86 norm.,0.98 norm.,,,
"DLRSNDFSITGSLPR [GlyRβ_Full_Positional_Scan_196, GlyR β 414-428 variant V423T]",,0.59 norm.,0.97 norm.,0.66 norm.,,,
"DLRSNDFSHVGSLPR [GlyRβ_Full_Positional_Scan_173, GlyR β 414-428 variant I422H]",,0.21 norm.,0.55 norm.,0.41 norm.,,,
"DLRSNDFSILGSLPR [GlyRβ_Full_Positional_Scan_184, GlyR β 414-428 variant V423L]",,0.23 norm.,0.66 norm.,0.39 norm.,,,
DLRGNDFSIVGSLPR [GlyRβ_Full_Positional_Scan_062],,1.16 norm.,0.88 norm.,0.99 norm.,,,
"DLRSNDFSIQGSLPR [GlyRβ_Full_Positional_Scan_200, GlyR β 414-428 variant V423Q]",,0.41 norm.,1.03 norm.,0.7 norm.,,,
DSRSNDFSIVGSLPR [GlyRβ_Full_Positional_Scan_035],,0.97 norm.,0.97 norm.,0.97 norm.,,,
DLRSNDFSIVGSLPH [GlyRβ_Full_Positional_Scan_293],,,,,0.92 norm.,1.05 norm.,0.96 norm.
DLRSGDFSIVGSLPR [GlyRβ_Full_Positional_Scan_082],,0.77 norm.,0.9 norm.,0.9 norm.,,,
DLRSNDFSIVGSLPT [GlyRβ_Full_Positional_Scan_296],,,,,1.56 norm.,1.37 norm.,0.87 norm.
"DLRSNDFSIVESLPR [GlyRβ_Full_Positional_Scan_211, GlyR β 414-428 variant G424E]",,0.14 norm.,0.18 norm.,0.23 norm.,,,
DLLSNDFSIVGSLPR [GlyRβ_Full_Positional_Scan_044],,1.48 norm.,1.28 norm.,0.95 norm.,,,
"DLRSNDESIVGSLPR [GlyRβ_Full_Positional_Scan_131, GlyR β 414-428 variant F420E]",,0.2 norm.,0.32 norm.,0.42 norm.,,,
DLRSNDFSIVGSVPR [GlyRβ_Full_Positional_Scan_246],,,,,0.82 norm.,1.06 norm.,0.92 norm.
DLRSNDFSIVGSLMR [GlyRβ_Full_Positional_Scan_278],,,,,0.44 norm.,0.77 norm.,0.6 norm.
DERSNDFSIVGSLPR [GlyRβ_Full_Positional_Scan_031],,0.92 norm.,1.01 norm.,0.98 norm.,,,
